Measured values: patent US7122540B2, “2-Phenyl substituted imidazotriazinones as phosphodiesterase inhibitors” (Bayer HealthCare AG, priority 1997, dated 2006)

Experiments:
PDE I = experiment: Inhibition of the phosphodiesterases in vitro: Ca2+-calmodulin-stimulated PDE I; format: biochemical, porcine or, preferably, bovine; conditions: concentration at which the reaction rate is reduced by 50%; CaCl2 and calmodulin added
Protocol: (§1) The cGMP-stimulated PDE II, the cGMP-inhibited PDE III and the cAMP-specific PDE IV were isolated either from porcine or bovine heart myocardium. The Ca^2+-calmodulin-stimulated PDE I was isolated from porcine aorta, porcine brain or, preferably, from bovine aorta. The cGMP-specific PDE V was obtained from porcine small intestine, porcine aorta, human platelets and, preferably, from bovine aorta. Purification was carried out by anion exchange chromatography over MonoQ® Pharmacia, essentially following the method of M. Hoey and Miles D. Houslay, Biochemical Pharmacology, Vol. 40, 193–202(1990) and C. Lugman et al., Biochemical Pharmacology, Vol. 35, 1743–1751(1986).
(§2) The enzyme activity is determined using a test mixture of 100 ml in 20 mM tris/HCI-buffer pH 7.5 containing 5 mM MgCl2, 0.1 mg/ml of bovine serum albumin and either 800Bq[^3H]cAMP or [^3H]cGMP. The final concentration of the nucleotides in question is 10^−6 mol/l. The reaction is initiated by addition of the enzyme and the amount of enzyme is such that during the incubation time of 30 min, approximately 50% of the substrate are converted. To test the cGMP-stimulated PDE II, [^3H]cAMP is used as substrate and 10^−6 mol/l of non-labelled cGMP are added to the mnixture. To test the Ca^2+-calmodulin-dependent PDE I, 1 mM of CaCl2 and […] are added to the reaction mixture. The reaction is quenched by addition of […] of acetonitrile containing 1 mM cAMP and 1 mM AMP. 100 ml of the reaction mixture are separated by HPLC, and the cleavage products are determined quantitatively on-line using a continuous scintillation counter. The substance concentration measured is the concentration at which the reaction rate is reduced by 50%. Additionally, the “phosphodiesterase [^3H] cAMP-SPA enzyme assay” and the “phosphodiesterase [^3H] cGMP-SPA enzyme assay” from Amersham Life Science were used for testing. The test was carried out according to the test protocol of the manufacturer. To determine the activity of PDE II, the [^3H]cAMP SPA assay was used, and 10^−6M cGMP were added to the reaction mixture to activate the enzyme. To measure PDE I, 10^−7M calmodulin and 1 mM CaCl2 were added to the reaction mixture. PDE V was measured using the [^3H]cGMP SPA assay.

PDE II = target: T1, PDE II (Bos taurus, UniProt P14099); experiment: Inhibition of the phosphodiesterases in vitro: cGMP-stimulated PDE II; format: biochemical, porcine or bovine; conditions: [3H]cAMP substrate, 10^-6 mol/l cGMP added; concentration at which the reaction rate is reduced by 50%
T1 construct: isolated either from porcine or bovine heart myocardium; from tissue; host or cells: porcine or bovine heart myocardium
T1 sequence (P14099 1-921): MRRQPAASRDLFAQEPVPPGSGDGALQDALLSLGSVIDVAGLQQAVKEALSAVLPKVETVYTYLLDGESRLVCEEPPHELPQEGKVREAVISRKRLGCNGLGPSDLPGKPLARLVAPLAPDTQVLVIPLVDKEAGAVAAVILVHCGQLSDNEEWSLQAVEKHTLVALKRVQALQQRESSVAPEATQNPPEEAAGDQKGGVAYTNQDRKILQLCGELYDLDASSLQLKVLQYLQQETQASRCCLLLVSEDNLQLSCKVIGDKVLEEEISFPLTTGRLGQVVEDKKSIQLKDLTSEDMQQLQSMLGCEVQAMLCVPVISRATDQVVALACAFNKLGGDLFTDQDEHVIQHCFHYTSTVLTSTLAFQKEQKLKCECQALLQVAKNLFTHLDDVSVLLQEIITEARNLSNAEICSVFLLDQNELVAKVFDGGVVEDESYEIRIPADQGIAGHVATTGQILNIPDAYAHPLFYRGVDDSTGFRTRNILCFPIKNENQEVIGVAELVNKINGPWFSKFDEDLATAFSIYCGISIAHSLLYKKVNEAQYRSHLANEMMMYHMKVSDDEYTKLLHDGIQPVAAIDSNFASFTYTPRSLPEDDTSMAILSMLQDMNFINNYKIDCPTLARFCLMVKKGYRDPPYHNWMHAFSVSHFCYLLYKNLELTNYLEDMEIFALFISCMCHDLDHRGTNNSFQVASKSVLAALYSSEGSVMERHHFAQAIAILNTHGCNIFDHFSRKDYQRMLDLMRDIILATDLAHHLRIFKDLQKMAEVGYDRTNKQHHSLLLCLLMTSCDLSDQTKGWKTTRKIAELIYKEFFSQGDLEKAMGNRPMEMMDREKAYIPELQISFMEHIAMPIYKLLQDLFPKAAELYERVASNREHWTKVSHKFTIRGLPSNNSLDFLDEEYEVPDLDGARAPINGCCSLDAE
Protocol: as §1, §2

PDE V = target: T2, PDE V (Bos taurus, UniProt Q28156); experiment: Inhibition of the phosphodiesterases in vitro: cGMP-specific PDE V; format: biochemical, porcine, human or, preferably, bovine; conditions: [3H]cGMP substrate; concentration at which the reaction rate is reduced by 50%
T2 construct: Purification was carried out by anion exchange chromatography over MonoQ; from tissue; host or cells: porcine small intestine, porcine aorta, human platelets or, preferably, bovine aorta
Protocol: The cGMP-stimulated PDE II, the cGMP-inhibited PDE III and the cAMP-specific PDE IV were isolated either from porcine or bovine heart myocardium. The Ca^2+-calmodulin-stimulated PDE I was isolated from porcine aorta, porcine brain or, preferably, from bovine aorta. The cGMP-specific PDE V was obtained from porcine small intestine, porcine aorta, human platelets and, preferably, from bovine aorta.
as §2

IC50 (PDE I) | IC50 (PDE II) | IC50 (PDE V) | SMILES
100 nM | > 1000 nM | 1 nM | CCCc1nc(C)c2c(=O)[nH]c(-c3cc(S(=O)(=O)N4CCC(O)CC4)ccc3OCC)nn12 [Example 26, 2-[2-Ethoxy-5-(4-hydroxy-piperidine-1-sulphonyl)-phenyl]-5-methyl-7-propyl-3H-imidazo[5,1-f][1,2,4]triazin-4-one]
– | > 1000 nM | – | CCCc1nc(C)c2c(=O)[nH]c(-c3cc(S(=O)(=O)N4CCN(CC)CC4)ccc3OCC)nn12 [Example 19, 2-[2-Ethoxy-5-(4-ethyl-piperazine-1-sulphonyl)-phenyl]-5-methyl-7-propyl-3H-imidazo[5,1-f][1,2,4]triazin-4-one]
100 nM | > 1000 nM | 4 nM | CCCc1nc(C)c2c(=O)[nH]c(-c3cc(S(=O)(=O)N(CC)CC)ccc3OCC)nn12 [Example 32, N,N-Diethyl-4-ethoxy-3-(5-methyl-4-oxo-7-propyl-3,4-dihydro-imidazo[5,1-f][1,2,4]triazin-2-yl)benzenesulphonamide]

More lines, now with the values behind:

SMILES | IC50 (PDE I) | IC50 (PDE II) | IC50 (PDE V)
CCCc1nc(C)c2c(=O)[nH]c(-c3cc(S(=O)(=O)N(CCC)CCO)ccc3OCC)nn12 [Example 275] | 50 nM | > 1000 nM | 3 nM
CCCc1nc(C)c2c(=O)[nH]c(-c3cc(S(=O)(=O)N4CCN(C)CC4)ccc3OCC)nn12 [Example 16, 2-[2-Ethoxy-5-(4-methyl-piperazine-1-sulphonyl)-phenyl]-5-methyl-7-propyl-3H-imidazo[5,1-f][1,2,4]triazin-4-one] | 300 nM | > 1000 nM | 2 nM
CCCc1nc(C)c2c(=O)[nH]c(-c3cc(S(=O)(=O)N4CCOCC4)ccc3OCC)nn12 [Example 260] | 300 nM | > 1000 nM | 10 nM
CCCc1nc(C)c2c(=O)[nH]c(-c3cc(S(=O)(=O)N4CCN(CCO)CC4)ccc3OCC)nn12 [Example 27, 2-{2-Ethoxy-5-[4-(2-hydroxy-ethyl)-piperazine-1-sulphonyl]-phenyl}-5-methyl-7-propyl-3H-imidazo[5,1-f][1,2,4]triazin-4-one] | 200 nM | > 1000 nM | 3 nM
